The structures appear in SMILES notation.

In one assay the test system is Mustard (Sinapis alba). Put plainly: Soil incorporation (attaclay/sand dust), growth regulatory or herbicidal effects, mustard. As to conditions: 504 h, soil incorporation 130 ppm, 21 days, 0=no effect, 100=complete kill/suppression, read-out: growth regulatory or herbicidal effect score. Type of assay: in vivo. From the text: (§1) The compounds listed below were each formulated as an attaclay/sand dust and incorporated into John Innes I potting compost at a rate equivalent to 26 parts per million weight/volume of active ingredient to soil and placed in anodised aluminium pans, 19 cm long×9.5 cm wide×5.0 cm deep. This rate is approximately equivalent to a soil surface application of 11.2 kg active ingredient/hectare cultivated to a depth of 5 cm. Seeds of the species listed below were sown in the treated soil, watered and placed in a controlled environment room (22° C.; 65-85% relative humidity; 14 hours per day artificial illumination at 13,000 lux) for 21 days. The plants were then visually assessed for any growth regulatory or herbicidal effects. All differences from an untreated control were scored on a scale from 0-100, where 0 signifies no effect and 100 signifies complete kill.
(§2) The compounds listed below were tested according to the procedure of Examples 56-60 but at 130 parts per million weight/volume of active ingredient to soil. This rate is approximately equivalent to a soil surface application of 56 kg active ingredient per hectare cultivated to a depth of 5 cm.
(§3) The product of Example 95 was tested according to the procedure of Examples 56-60 but at 130 and 26 parts per million weight/volume. The results were as follows:
(§4) N-(2-oxopropyl)-2'-chloro-6'-methyl-methanesulphonanilide, formulated as an attaclay/sand dust, was incorporated in John Innes I potting compost at a rate equivalent to 130 parts per million weight/volume of active ingredient to soil and placed in anodised aluminium pans, 19 cm long×9.5 cm wide×5.0 cm deep. These rates are approximately equivalent to a soil surface application of 56 kg active ingredient per hectare cultivated to a depth of 5 cm. Seeds of Peas, Mustard, Linseed, Maize, Oats and Ryegrass were sown in the treated soil, watered and placed in a controlled environment room (22° C.; 65-85% relative humidity; 14 hours artificial illumination at 13000 lux) for 21 days.
(§5) The plants were then visually assessed for any growth regulatory or herbicidal effects. All differences from an untreated control were scored on a scale from 0-100, where 0 signifies no effect and 100 signifies complete suppression.

For a further assay, the system named is Peas (Pisum sativum). Put plainly: Soil incorporation (attaclay/sand dust), growth regulatory or herbicidal effects, peas. Type of assay: in vivo. As to conditions: Lathyrus oleraceus, 504 h, soil incorporation 130 ppm, 21 days, 0=no effect, 100=complete kill/suppression, read-out: growth regulatory or herbicidal effect score.
Description: as §1, §2, §3, §4, §5

Assay [1] deals with Ryegrass (Lolium perenne). Put plainly: Soil incorporation (attaclay/sand dust), growth regulatory or herbicidal effects, ryegrass. Type of assay: in vivo. As to conditions: 504 h, soil incorporation 130 ppm, 21 days, 0=no effect, 100=complete kill/suppression, read-out: growth regulatory or herbicidal effect score.
Description: as §1, §2, §3, §4, §5

Another assay concerns Maize (Zea mays). Put plainly: Soil incorporation (attaclay/sand dust), growth regulatory or herbicidal effects, maize. Type of assay: in vivo. Particulars: 504 h, soil incorporation 130 ppm, 21 days, 0=no effect, 100=complete kill/suppression, read-out: growth regulatory or herbicidal effect score.
Description: as §1, §2, §3, §4, §5

The test system of assay [2] is Linseed (Linum usitatissimum). Nature of the assay: Soil incorporation (attaclay/sand dust), growth regulatory or herbicidal effects, linseed. Type of assay: in vivo. Particulars: 504 h, soil incorporation 130 ppm, 21 days, 0=no effect, 100=complete kill/suppression, read-out: growth regulatory or herbicidal effect score.
Description: as §1, §2, §3, §4, §5

A further assay has as its system Oats (Avena sativa). Nature of the assay: Soil incorporation (attaclay/sand dust), growth regulatory or herbicidal effects, oats. Type of assay: in vivo. Particulars: 504 h, soil incorporation 130 ppm, 21 days, 0=no effect, 100=complete kill/suppression, read-out: growth regulatory or herbicidal effect score.
Description: as §1, §2, §3, §4, §5

For assay [3], the system named is Pythium ultimum. Put plainly: Cabbage seedling emergence in soil infected with Pythium ultimum. Particulars: 6 days, 25° C. Type of assay: in vivo, Pythium ultimum (on cabbage, variety Flower of Spring). As to the method:
(§6) A one week old maize meal/sand culture of the damping-off disease organism Pythium ultimum was thoroughly mixed by hand with clean sterile John Innes No. 1 potting compost in the ratio of 3 kg culture to 12 liters of soil. The infected soil was then left for approximately 18 hours before use. Each of the compounds listed below was ground together with a wetting agent, Tween 20 (1% of final volume), until a solution or fine suspension was produced which was then diluted with distilled water to give 160 ml of solution containing 1500, 500, 150 or 50 ppm active ingredient. 15 ml aliquots of this solution were added to 75 g portions of the soil infected with Pythium ultimum which were contained in small plastic cartons, 60 mm diameter×55 mm high. Fifteen cabbage seeds, variety Flower of Spring, were placed in a circular depression in the treated infected soil, recovered, and the whole sealed with a plastic cap. The cartons were then placed in a constant temperature room at 25° C.±1° C. Four replications per treatment were made with one additional treatment where seeds were sown in soil which was chemically treated only, i.e. there was no infection. This latter treatment was included to measure the direct effect of the chemical on the germination of the seed. After six days the cartons were removed from the controlled temperature chamber and assessed for degree of fungal growth on the soil surface and percentage of seedling emergence. The results of both these assessments are expressed in a 0-8 scale as follows:
(§7) One week old maize meal/sand culture of the damping-off disease organism Pythium ultimum was thoroughly mixed by hand with clean sterile John Innes No. 1 potting compost in the ratio of 3 kg culture to 12 liters of soil. This infected soil was then left for approximately 18 hours before use. The compounds listed in the Table below were each ground with the wetting agent Tween 20 (1% of final volume), until a solution or fine suspension was produced, which was then diluted with distilled water to give 160 ml of solution containing 1500 or 500 parts per million (ppm) active ingredient. 15 ml aliquots of this solution were added to 75 g portions of the soil infected with Pythium ultimum which were contained in small plastic cartons, 60 mm diameter×55 mm high.
(§8) Fifteen cabbage seeds, variety Flower of Spring, were placed in a circular depression in the treated infected soil, recovered, and the whole sealed with a plastic cap. The cartons were then placed in a constant temperature room at 25° C.±1° C. Four replications per treatment were made, with one additional treatment where seeds were sown in soil which was chemically treated only, i.e. there was no infection. This latter treatment was included to measure the direct effect of the chemical on the germination of the seed.
(§9) After six days, the cartons were removed from the controlled temperature chamber and assessed for degree of fungal growth on the soil surface and percentage of seedling emergence. The results of both these assessments are expressed in a 0-8 scale as follows:
(§10) N-(2-oxopropyl)-3',4'-dimethyl-methanesulphonanilide was tested at a dose rate of 300 ppm in the test described in Examples 233 and 234. It gave a mycelial control score of 0 and a germination score of 3 whereas the untreated samples gave a score of 0 for both.

The test system of assay [4] is Pythium ultimum. Put plainly: Fungal growth on the surface of soil infected with damping-off disease organism. Type of assay: in vivo. Particulars: 6 days, 25° C. As to the method:
as §6, §7, §8, §9, §10

Setting [5] is: 300 ppm, 0-8 scale (Examples 233, 234, 268).

Turning to `CC(C(=O)O)N(c1ccc(Cl)c(Cl)c1)S(C)(=O)=O` (centres unmarked) [Example 4], the pest or weed control at 130 µg/mL with Mustard (Sinapis alba) is 70%; in the assay with Peas (Pisum sativum), 70%; in assay [1] it was 0%; in assay [2], 90%. The plant injury at 130 µg/mL was 70% in the assay on Maize (Zea mays) and 40% in the assay with Oats (Avena sativa).
`CCc1ccccc1N(C(C)C(=O)O)S(C)(=O)=O` (centres unmarked) [Example 5]: the pest or weed control at 130 µg/mL in the assay on Mustard (Sinapis alba) was 50%; in the assay with Peas (Pisum sativum) it was 30%; in assay [1] it was 20%; in assay [2], 70%. The plant injury at 130 µg/mL in the assay on Maize (Zea mays) and in the assay with Oats (Avena sativa) was 30% in each case.
With `Cc1cccc(C)c1N([C@@H](C)C(=O)O)S(C)(=O)=O` [Example 7, N-(2,6-dimethylphenyl)-N-methanesulphonyl alanine], the pest or weed control at 130 µg/mL in the assay on Mustard (Sinapis alba) was determined as 70%; with Peas (Pisum sativum) it was 20%; in assay [1], 0%; in assay [2], 50%. The plant injury at 130 µg/mL with Maize (Zea mays) and in the assay on Oats (Avena sativa) was 30% each time.
On to `CCS(=O)(=O)N(c1c(C)cccc1C)C(C)C(=O)O` (centres unmarked) [Example 9], for which the pest or weed control at 130 µg/mL came to 70% with Mustard (Sinapis alba), 50% in the assay on Peas (Pisum sativum), 20% in assay [1] and 80% in assay [2]. Also, the “Germination Score” value in the assay on Pythium ultimum [3] (30 ppm, 0-8 scale) was 1 (20-34% inhibition); with Pythium ultimum [3] (100 ppm, 0-8 scale), 5 (65-74% inhibition); in the assay with Pythium ultimum [3] (300 ppm, 0-8 scale), 5 (65-74% inhibition). Further, the plant injury at 130 µg/mL turned out to be 30% with Maize (Zea mays) and 20% in the assay on Oats (Avena sativa). Further, the “Mycelial Control Score” value with Pythium ultimum [4] (30 ppm, 0-8 scale) is given as 0 (<20% inhibition); in the assay with Pythium ultimum [4] (100 ppm, 0-8 scale), 0 (<20% inhibition); with Pythium ultimum [4] (300 ppm, 0-8 scale), 0 (<20% inhibition).
As for `CCOC(=O)CN(c1ccc(Cl)cc1)S(C)(=O)=O` [Example 12], the pest or weed control at 130 µg/mL with Mustard (Sinapis alba) amounted to 70%; with Peas (Pisum sativum), 40%; in assay [1] it was 5%; in assay [2], 80%. The plant injury at 130 µg/mL amounted to 0% in the assay with Maize (Zea mays) and 5% in the assay on Oats (Avena sativa).
Take `CCOC(=O)CN(c1c(C)cccc1C)S(C)(=O)=O` [Example 14]: the pest or weed control at 130 µg/mL with Mustard (Sinapis alba) stood at 100%; with Peas (Pisum sativum) it was 30%; in assay [1] it was 30%; in assay [2] it was 90%. Besides, the plant injury at 130 µg/mL with Maize (Zea mays) was found to be 40%; with Oats (Avena sativa) it was 20%.
On to `CCOC(=O)CN(c1cccc(C(F)(F)F)c1)S(C)(=O)=O` [Example 17], for which the pest or weed control at 130 µg/mL in the assay with Mustard (Sinapis alba) stood at 40%; with Peas (Pisum sativum) it was 40%; in assay [1], 0%; in assay [2], 90%. Moreover, the plant injury at 130 µg/mL in the assay on Maize (Zea mays) and in the assay on Oats (Avena sativa) was 0% throughout.
As for `CCOC(=O)CN(c1ccc(Cl)c(Cl)c1)S(C)(=O)=O` [Example 18], the pest or weed control at 130 µg/mL with Mustard (Sinapis alba) was 40%; in the assay with Peas (Pisum sativum) it was 40%; in assay [1], 30%; in assay [2], 80%. Further, the plant injury at 130 µg/mL was determined as 30% in the assay on Maize (Zea mays) and 0% in the assay on Oats (Avena sativa).
Consider `CCN(CC)C(=O)CN(c1ccc(Cl)cc1)S(C)(=O)=O` [Example 35], for which the pest or weed control at 130 µg/mL came to 100% in the assay with Mustard (Sinapis alba), 20% with Peas (Pisum sativum), 20% in assay [1] and 40% in assay [2]. The plant injury at 130 µg/mL with Maize (Zea mays) and in the assay on Oats (Avena sativa) was 20% throughout.
Consider `CCN(CC)C(=O)CN(c1c(C)cccc1C)S(C)(=O)=O` [Example 36], for which the pest or weed control at 130 µg/mL in the assay with Mustard (Sinapis alba) stood at 100%; in the assay with Peas (Pisum sativum), 20%; in assay [1], 20%; in assay [2] it was 40%. For the same molecule, the plant injury at 130 µg/mL with Maize (Zea mays) and in the assay on Oats (Avena sativa) was 20% throughout.
As for `CS(=O)(=O)N(CC#N)c1ccc(Cl)cc1` [Example 45], the pest or weed control at 130 µg/mL in the assay on Mustard (Sinapis alba) came out at 100%; in the assay with Peas (Pisum sativum), 20%; in assay [1] it was 80%; in assay [2] it was 90%. In addition, the plant injury at 130 µg/mL came out at 30% with Maize (Zea mays) and 70% in the assay on Oats (Avena sativa).
As to `CC(C)c1ccccc1N(CC#N)S(C)(=O)=O` [Example 47], the pest or weed control at 130 µg/mL was 80% in the assay on Mustard (Sinapis alba), 10% in the assay with Peas (Pisum sativum), 50% in assay [1] and 100% in assay [2]. Further, the plant injury at 130 µg/mL in the assay with Maize (Zea mays) came out at 10%; in the assay on Oats (Avena sativa), 30%.
Take `CS(=O)(=O)N(CC#N)c1cccc(C(F)(F)F)c1` [Example 48]: the pest or weed control at 130 µg/mL in the assay on Mustard (Sinapis alba) was 100%; in the assay on Peas (Pisum sativum), 50%; in assay [1], 90%; in assay [2] it was 100%. Besides, the plant injury at 130 µg/mL amounted to 40% in the assay on Maize (Zea mays) and 80% in the assay with Oats (Avena sativa).
In the case of `CC(=O)CN(c1c(C)cccc1Cl)S(C)(=O)=O` [Example 210, N-2-oxopropyl-2'-chloro-6'-methyl-methanesulphonanilide], the pest or weed control at 130 µg/mL is 100% in the assay with Mustard (Sinapis alba), 30% with Peas (Pisum sativum), 70% in assay [1] and 80% in assay [2]. Further, the plant injury at 130 µg/mL turned out to be 5% in the assay on Maize (Zea mays) and 60% in the assay on Oats (Avena sativa).
Take `CC1(CN(c2ccc(Cl)cc2)S(C)(=O)=O)OCCO1` [Example 228, N-[(2-methyl-1,3-dioxolan-2-yl)methyl]-4'-chloro-methanesulphonanilide]: the “Germination Score” value in the assay on Pythium ultimum [3] (setting [5]) is given as 0 (<20% inhibition). The “Mycelial Control Score” value in the assay on Pythium ultimum [4] (setting [5]) is 8 (>94% inhibition).

(Values after patent publication US4309559A, “Sulphonamides useful as pesticides” (FBC Limited, priority 1977, dated 1982).)
